PubChem BioAssay AID1963442 (Molecular Pharmacology Branch, DTP, NCI, 2024)

Test system: MPNST complex spheroid with HUVEC/MSC, growth, % test/control
Assay: Anticancer human tumor MPNST cell line growth inhibition [Asc];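 note: compounds left on spheroids for seven days before reading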
Conditions: for IC50: curve of first compound; for viability, T/C: stronger effect = lower value
How it was run: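 Stromal components (HUVEC and hMSC) are co-assembled with the cancer cells into multicellular spheroids. Drugs are then added singly or paired, at concentrations falling by half-log increments from a clinically achievable maximum, capped at 10 microM without known Cmax.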

O=C(c1cc(Cc2n[nH]c(=O)c3ccccc23)ccc1F)N1CCN(C(=O)C2CC2)CC1 + Cc1c(S(C)(=O)=O)c(-c2cc(F)cc(N3CCN(c4ccc(NS(=O)(=O)c5ccc(NC(CCN6CCC(C(=O)OCCCP(=O)(O)O)CC6)CSc6ccccc6)c(S(=O)(=O)C(F)(F)F)c5)cc4)CC3)c2)c(-c2ccc(Cl)cc2)n1C(C)C
IC50 (second compound 0.1 µM): > 10 µM | IC50 (second compound 0.316 µM): > 10 µM | IC50 (second compound 1 µM): 9.83 µM | IC50 (second compound 3.16 µM): > 10 µM | IC50 (second compound 10 µM): > 10 µM | viability, T/C (second compound 0.1 µM, first compound 0.0316 µM): 81.9% | viability, T/C (second compound 0.1 µM, first compound 0.1 µM): 59.6% | viability, T/C (second compound 0.1 µM, first compound 0.316 µM): 68.3% | viability, T/C (second compound 0.1 µM, first compound 1 µM): 64.5% | viability, T/C (second compound 0.1 µM, first compound 3.16 µM): 81.1% | viability, T/C (second compound 0.1 µM, first compound 10 µM): 64.5% | viability, T/C (second compound 0.316 µM, first compound 0.0316 µM): 70.9% | viability, T/C (second compound 0.316 µM, first compound 0.1 µM): 67.1% | viability, T/C (second compound 0.316 µM, first compound 0.316 µM): 56.8% | viability, T/C (second compound 0.316 µM, first compound 1 µM): 69.5% | viability, T/C (second compound 0.316 µM, first compound 3.16 µM): 60.8% | viability, T/C (second compound 0.316 µM, first compound 10 µM): 49.8% | viability, T/C (second compound 1 µM, first compound 0.0316 µM): 58.5% | viability, T/C (second compound 1 µM, first compound 0.1 µM): 78.6% | viability, T/C (second compound 1 µM, first compound 0.316 µM): 65.6% | viability, T/C (second compound 1 µM, first compound 1 µM): 79.7% | viability, T/C (second compound 1 µM, first compound 3.16 µM): 72.6% | viability, T/C (second compound 1 µM, first compound 10 µM): 49.7% | viability, T/C (second compound 3.16 µM, first compound 0.0316 µM): 101% | viability, T/C (second compound 3.16 µM, first compound 0.1 µM): 72.9% | viability, T/C (second compound 3.16 µM, first compound 0.316 µM): 77.1% | viability, T/C (second compound 3.16 µM, first compound 1 µM): 64% | viability, T/C (second compound 3.16 µM, first compound 3.16 µM): 58.8% | viability, T/C (second compound 3.16 µM, first compound 10 µM): 51.5% | viability, T/C (second compound 10 µM, first compound 0.0316 µM): 75% | viability, T/C (second compound 10 µM, first compound 0.1 µM): 85.8% | viability, T/C (second compound 10 µM, first compound 0.316 µM): 76.9% | viability, T/C (second compound 10 µM, first compound 1 µM): 62.5% | viability, T/C (second compound 10 µM, first compound 3.16 µM): 68.9% | viability, T/C (second compound 10 µM, first compound 10 µM): 49%

Cc1nc(N2CCC3(CC2)COC(C)C3N)c(CO)nc1Sc1ccnc(N)c1Cl (configuration not stated) + CNC(C)C(=O)NC1CN(S(=O)(=O)c2cccc(S(=O)(=O)N3CCC4CCC(C(=O)NC(c5ccccc5)c5ccccc5)N4C(=O)C(NC(=O)C(C)NC)C3)c2)CCC2CCC(C(=O)NC(c3ccccc3)c3ccccc3)N2C1=O
IC50 (second compound 0.00316 µM): 0.105 µM | IC50 (second compound 0.01 µM): 0.125 µM | IC50 (second compound 0.0316 µM): 0.119 µM | IC50 (second compound 0.1 µM): 0.157 µM | IC50 (second compound 0.316 µM): 0.647 µM | IC50 (second compound 1 µM): 0.3 µM | viability, T/C (second compound 0.00316 µM, first compound 0.00949 µM): 90.5% | viability, T/C (second compound 0.00316 µM, first compound 0.03 µM): 56.4% | viability, T/C (second compound 0.00316 µM, first compound 0.0949 µM): 57% | viability, T/C (second compound 0.00316 µM, first compound 0.3 µM): 41.5% | viability, T/C (second compound 0.00316 µM, first compound 0.949 µM): 62.1% | viability, T/C (second compound 0.00316 µM, first compound 3 µM): 30.6% | viability, T/C (second compound 0.01 µM, first compound 0.00949 µM): 103% | viability, T/C (second compound 0.01 µM, first compound 0.03 µM): 54% | viability, T/C (second compound 0.01 µM, first compound 0.0949 µM): 60.7% | viability, T/C (second compound 0.01 µM, first compound 0.3 µM): 51.6% | viability, T/C (second compound 0.01 µM, first compound 0.949 µM): 39.5% | viability, T/C (second compound 0.01 µM, first compound 3 µM): 25% | viability, T/C (second compound 0.0316 µM, first compound 0.00949 µM): 114% | viability, T/C (second compound 0.0316 µM, first compound 0.03 µM): 59.2% | viability, T/C (second compound 0.0316 µM, first compound 0.0949 µM): 65.9% | viability, T/C (second compound 0.0316 µM, first compound 0.3 µM): 40.1% | viability, T/C (second compound 0.0316 µM, first compound 0.949 µM): 42.8% | viability, T/C (second compound 0.0316 µM, first compound 3 µM): 40% | viability, T/C (second compound 0.1 µM, first compound 0.00949 µM): 68.9% | viability, T/C (second compound 0.1 µM, first compound 0.03 µM): 66.1% | viability, T/C (second compound 0.1 µM, first compound 0.0949 µM): 52.5% | viability, T/C (second compound 0.1 µM, first compound 0.3 µM): 45.8% | viability, T/C (second compound 0.1 µM, first compound 0.949 µM): 32.6% | viability, T/C (second compound 0.1 µM, first compound 3 µM): 28.8% | viability, T/C (second compound 0.316 µM, first compound 0.00949 µM): 60.8% | viability, T/C (second compound 0.316 µM, first compound 0.03 µM): 80.8% | viability, T/C (second compound 0.316 µM, first compound 0.0949 µM): 60.3% | viability, T/C (second compound 0.316 µM, first compound 0.3 µM): 57.4% | viability, T/C (second compound 0.316 µM, first compound 0.949 µM): 47% | viability, T/C (second compound 0.316 µM, first compound 3 µM): 31.7% | viability, T/C (second compound 1 µM, first compound 0.00949 µM): 71.5% | viability, T/C (second compound 1 µM, first compound 0.03 µM): 67.8% | viability, T/C (second compound 1 µM, first compound 0.0949 µM): 49.9% | viability, T/C (second compound 1 µM, first compound 0.3 µM): 48.1% | viability, T/C (second compound 1 µM, first compound 0.949 µM): 52.9% | viability, T/C (second compound 1 µM, first compound 3 µM): 28.6%
